Source: US20250034216A1, “STEREOSELECTIVE COVALENT LIGANDS FOR ONCOGENIC AND IMMUNOLOGICAL PROTEINS” (The Scripps Research Institute, priority 2021, published 2025)

Columns and labels:
[1] = tested on: mRNA splicing in 22Rv1 cells; experiment: RNA sequencing, alternative splicing (rMATS); assay type: cell-based, human; details: 8 hr, RNA-seq
Description: RNA sequencing libraries were prepared using the NEBNext Ultra II RNA Library Prep Kit for Illumina following manufacturer's instructions (NEB, Ipswich, MA, USA). mRNAs were first enriched with Oligo(dT) beads. Enriched mRNAs were fragmented for 15 minutes at 94° C. First strand and second strand cDNAs were subsequently synthesized. cDNA fragments were end repaired and adenylated at 3′ends, and universal adapters were ligated to cDNA fragments, followed by index addition and library enrichment by limited-cycle PCR. The sequencing libraries were validated on the Agilent TapeStation (Agilent Technologies, Palo Alto, CA, USA), and quantified by using Qubit 2.0 Fluorometer (Invitrogen, Carlsbad, CA) as well as by quantitative PCR (KAPA Biosystems, Wilmington, MA, USA). FASTQ files were first trimmed using Trim_galore (v0.6.4) to remove sequencing adapters and low quality (Q<15) reads. Trimmed sequencing reads were aligned to the human Hg19 reference genome (GENCODE, GRCh37.p13) using STAR (v2.7.5). SAM files were subsequently converted to BAM files, sorted, and indexed using samtools (v1.9). […] Read counting across genomic features was performed using featureCounts (part of the subread package; v1.5.0) using the following parameters: -p -T 20 -O -F GTF -t exon. […]
For quantification of alternative RNA splicing, BAM files generated by STAR/Samtools were analyzed using rMATS (v4.1.1) using the GENCODE (v19) GTF annotation for Hg19 (GRCh37.p13) and the following parameters: -t paired --libType fr-unstranded—readLength 150—novelSS. To utilize reads shorted than 150b.p. resulting from adapter and/or QC trimming by trim_galore, rMATS was programmed to accept soft-clipped reads of variable length. Enumeration of isoform counts was performed using only reads that span the splice junction directly. To identify high confidence AS events, events were considered significant if (i) the inclusion level difference was greater than 20% compared to DMSO, (ii) the False Discovery Rate (FDR) was smaller than 0.05, and (iii) there were a minimum of 20 reads mapping to the splice junction. […]

PSME1 22 = biological target: T1, PSME1 22 (Homo sapiens, UniProt Q06323); experiment: IA-DTB cysteine engagement, GluC + trypsin digest; assay type: binding; details: 22Rv1 cells
T1 construct: stereoselectively engaged C22 of endogenous PSME1 in 22Rv1 cells; endogenous in cells; host or cells: 22Rv1
Description: Sample preparation: Cells (adherent: 15 cm dishes, suspension: 2 million cells/mL) were treated with electrophilic probes in situ for indicated times and concentrations, washed with ice-cold PBS, and flash frozen in liquid nitrogen. Cell pellets were lysed by sonication (8 pulses, 40% power) in 500 μL ice-cold PBS supplemented with cOmplete protease inhibitors (1 tablet/10 mL of PBS). Whole cell lysates protein content was measured using a standard DC protein assay (Bio-Rad) and 500 μL (2 mg/mL protein content) were treated with 5 μL of 10 mM 1A-DTB (in DMSO) for 1 h at ambient temperature with occasional vortexing. Samples were methanol-chloroform precipitated with the addition of 500 μL ice-cold MeOH and 200 μL CHCl3, vortexed, and centrifuged (10 min, 10,000 g). Without disrupting the protein disk, both top and bottom layers were aspirated and the protein disk was washed with 1 mL ice-cold MeOH and centrifuged (10 min, 10,000 g). The pellets were allowed to air dry, and then re-suspended in 90 μL buffer (9 M urea, 10 mM DTT, 50 mM TEAB pH 8.5). Samples were reduced by heating at 65 C for 20 minutes and water bath sonicated as needed to resuspend the protein pellets, followed by alkylation via addition of 10 μL (500 mM) iodoacetamide and incubated at 37 C for 30 min with shaking. Samples were briefly centrifuged, and probe sonicated once more to ensure complete resuspension, and then diluted with 300 μL buffer (50 mM TEAB pH 8.5) to reach final concentration of 2 M urea. […] Digested samples were then diluted with 300 μL wash buffer (50 mM TEAB pH 8.5, 150 mM NaCl, 0.2% NP-40) containing streptavidin-agarose beads (50 μL of 50% slurry in wash buffer) and were rotated at room temperature for 2 hours. Enriched samples were pelleted by centrifugation (2000 g, 2 min) and transferred to BioSpin columns and washed (3×1 mL wash buffer, 3×1 mL PBS, 3×1 mL water). Enriched peptides were eluted by 300 μL 50% acetonitrile with 0.1% formic acid and eluate was evaporated to dryness via speedvac. IA-DTB labeled and enriched peptides were resuspended in 100 μL EPPS buffer (200 mM, pH 8.0) with 30% acetonitrile, vortexed, and water bath sonicated. Samples were TMT labeled with 3 μL of corresponding TMT tag (5 mg tag resuspended in 256 μL acetonitrile), vortexed, and incubated at room temperature for 1 hour. […]
Data processing: Cysteine engagement ratios (probe vs DMSO) were calculated for each peptide-spectra match by dividing each TMT reporter ion intensity by the average intensity for the channels corresponding to DMSO treatment. […]
Samples were analyzed by liquid chromatography tandem mass-spectrometry using an Orbitrap Fusion mass spectrometer (Thermo Scientific) coupled to an UltiMate 3000 Series Rapid Separation LC system and autosampler (Thermo Scientific Dionex). […]

T1 sequence (Q06323 whole entry): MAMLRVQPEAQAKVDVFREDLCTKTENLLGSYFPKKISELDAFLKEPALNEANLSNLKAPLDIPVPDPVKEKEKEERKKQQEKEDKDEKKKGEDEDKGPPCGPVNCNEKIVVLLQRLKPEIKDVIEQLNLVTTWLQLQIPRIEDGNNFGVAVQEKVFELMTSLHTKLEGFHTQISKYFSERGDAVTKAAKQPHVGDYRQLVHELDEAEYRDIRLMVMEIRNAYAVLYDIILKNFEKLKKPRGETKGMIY

Structure (SMILES)	mRNA splicing changes [1]	percent engagement relative to DMSO, PSME1 22 (PSME1 22; 5 uM)	percent engagement relative to DMSO, PSME1 22 (PSME1 22; 20 uM)
C=CC(=O)N1[C@H](c2ccc3c(c2)OCO3)c2[nH]c3ccccc3c2C[C@H]1C(=O)N1CCOCC1 [WX-02-23, 1-((1R,3S)-1-(benzo[d][1,3]dioxol-S-yl)-3-(morpholine-4-carbonyl)-1,3,4,9-tetrahydro-2H-pyrido [3,4-b]indol-2-yl)prop-2-en-1-one]	induction of both intron retention and exon skipping events	−20.9%	−29.44%
C=CC(=O)N1[C@@H](c2ccc3c(c2)OCO3)c2[nH]c3ccccc3c2C[C@@H]1C(=O)N1CCOCC1 [WX-02-43, 1-((1S,3R)-1-(benzo[d][1,3]dioxol-5-yl)-3-(morpholine-4-carbonyl)-1,3,4,9-tetrahydro-2H-pyrido [3,4-b]indol-2-yl)prop-2-en-1-one]	No such splicing effects were observed	−24.33%	−26.32%
